# Laboratory results as given in patent US9732087B2, “Diamino-pyridine, pyrimidine, and pyridazine modulators of the histamine H4 receptor” (JANSSEN PHARMACEUTICA NV, priority 2008, dated 2017).
# pKi: −log10 of the molar value. Counter-ions that a name gives are not always drawn.
# Biological target: human H4 receptor (Homo sapiens (Human), UniProt Q9H3N8)
# Assay: Binding assay on recombinant human histamine H4 receptor ([3H]histamine competition, SK-N-MC cell membranes)
# Conditions: membranes harvested with 96 well Brandel system; [3H]histamine 10 nM; average of results; read-out: Brandel Ki
# In short: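 Scintillation counting of filter-bound [3H]histamine after rapid harvesting on 0.5% PEI-treated GF/C filters with ice-cold Tris/EDTA washes. Receptor source: 30,000 g membrane pellets of SK-N-MC cells stably or transiently expressing human H4. Values shown as '>' are the top concentration tested.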
row,Structure (SMILES),pKi
1,"c1cc(N2CCNCC2)cc(NCC2CC2)n1 [Example 35, N-(Cyclopropylmethyl)-4-piperazin-1-ylpyridin-2-amine]",7.59
2,"CC(C)Nc1nccc(N2CCN(C)CC2)n1 [Example 53, N-(1-Methylethyl)-4-(4-methylpiperazin-1-yl)pyrimidin-2-amine]",7.61

# Same assay, conditions: membranes harvested with cell harvester; [3H]histamine 10 nM; average of results; read-out: Cell Harvester Ki
row,Structure (SMILES),pKi
1,"Cc1ccc(CNc2nccc(N3CC[C@@H](N)C3)n2)cc1 [Example 186, 4-[(3R)-3-Aminopyrrolidin-1-yl]-N-(4-methylbenzyl)pyrimidin-2-amine]",6.16
2,"c1cc(N2CCNCC2)nc(NC2CCCC2)n1 [Example 63, Cyclopentyl-(4-piperazin-1-yl-pyrimidin-2-yl)-amine]",6.53
3,"CC(C)(O)CNc1cc(N2CC[C@H](N)C2)ccn1 [Example 273, 1-({4-[(3S)-3-Aminopyrrolidin-1-yl]pyridin-2-yl}amino)-2-methylpropan-2-ol]",5.50
4,"CC(C)(C)CNc1cc(N2CC(N)C2)cnn1 [Example 323, 5-(3-Aminoazetidin-1-yl)-N-(2,2-dimethylpropyl)pyridazin-3-amine]",< 5.00
5,"CN[C@H]1CCN(c2ccnc(NCCCO)c2)C1 [Example 234, 3-({4-[(3S)-3-(Methylamino)pyrrolidin-1-yl]pyridin-2-yl}amino)propan-1-ol]",5.14
6,"CN1CCN(c2ccnc(NCc3ccccc3)n2)CC1 [Example 165, N-Benzyl-4-(4-methylpiperazin-1-yl)pyrimidin-2-amine]",6.14
7,"N[C@@H]1CCN(c2cnnc(NCCCO)c2)C1 [Example 313, 3-({5-[(3R)-3-Aminopyrrolidin-1-yl]pyridazin-3-yl}amino)propan-1-ol]",< 5.00
8,"CC1C(Nc2cc(N3C[C@H]4CCN[C@H]4C3)ccn2)C[C@H]2C[C@@H]1C2(C)C (stereo partly drawn) [Example 287, 4-[(3aR,6aR)-Hexahydropyrrolo[3,4-b]pyrrol-5(1H)-yl]-N-[(1S,5R)-2,6,6-trimethylbicyclo[3.1.1]hept-3-yl]pyridin-2-amine]",7.00
9,"N[C@H]1CCN(c2ccnc(NCCc3ccccc3)c2)C1 [Example 276, 4-[(3S)-3-Aminopyrrolidin-1-yl]-N-(2-phenylethyl)pyridin-2-amine]",5.79
10,"c1nnc(NCC2CCCC2)cc1N1CCCNCC1 [Example 316, N-(Cyclopentylmethyl)-5-(1,4-diazepan-1-yl)pyridazin-3-amine]",6.56
11,"CC(C)(O)CNc1nccc(N2CC[C@H](N)C2)n1 [Example 110, 1-({4-[(3S)-3-Aminopyrrolidin-1-yl]pyrimidin-2-yl}amino)-2-methylpropan-2-ol]",6.08
12,"N[C@H]1CCN(c2cnnc(NCC3CCCC3)c2)C1 [Example 317, 5-[(3S)-3-Aminopyrrolidin-1-yl]-N-(cyclopentylmethyl)pyridazin-3-amine]",6.03
13,"c1cc(N2CCNCC2)nc(NC[C@H]2CCCO2)n1 [Example 69, (R)-(4-Piperazin-1-yl-pyrimidin-2-yl)-(tetrahydro-furan-2-ylmethyl)-amine]",< 5.00
14,"c1nnc(NC2CC2)cc1N1C[C@H]2CCN[C@H]2C1 [Example 309, N-Cyclopropyl-5-[(3aR,6aR)-hexahydropyrrolo[3,4-b]pyrrol-5(1H)-yl]pyridazin-3-amine]",5.80
15,"CN1CCN(c2ccnc(NCC(C)(C)O)c2)CC1 [Example 241, 2-Methyl-1-{[4-(4-methylpiperazin-1-yl)pyridin-2-yl]amino}propan-2-ol]",6.08
16,"N[C@@H]1CCN(c2cnnc(NCC3CCCC3)c2)C1 [Example 359, 5-[(3R)-3-Aminopyrrolidin-1-yl]-N-(cyclopentylmethyl)pyridazin-3-amine]",6.79

row,Structure (SMILES),pKi
1,"COc1ccc(CNc2nccc(N3CCNCC3)n2)cc1 [Example 144, N-(4-Methoxybenzyl)-4-piperazin-1-ylpyrimidin-2-amine]",5.60
2,"c1cc(N2CCNCC2)cc(NCC2CC2)n1 [Example 35, N-(Cyclopropylmethyl)-4-piperazin-1-ylpyridin-2-amine]",7.13
3,"CN[C@H]1CCN(c2ccnc(NCCCO)n2)C1 [Example 152, 3-({4-[(3S)-3-(Methylamino)pyrrolidin-1-yl]pyrimidin-2-yl}amino)propan-1-ol]",5.64
4,"CN[C@@H]1CCN(c2cnnc(NCCOC)c2)C1 [Example 393, N-(2-Methoxyethyl)-5-[(3R)-3-(methylamino)pyrrolidin-1-yl]pyridazin-3-amine]",5.74
5,"CNC1CN(c2cnnc(NC3CCCCC3)c2)C1 [Example 325, N-Cyclohexyl-5-[3-(methylamino)azetidin-1-yl]pyridazin-3-amine]",6.10
6,"N[C@@H]1CCN(c2cnnc(NCC3CC4CCC3C4)c2)C1 (stereo partly drawn) [Example 312, 5-[(3R)-3-Aminopyrrolidin-1-yl]-N-(bicyclo[2.2.1]hept-2-ylmethyl)pyridazin-3-amine]",6.26
7,"c1ccc(CNc2cc(N3CCNCC3)ccn2)nc1 [Example 260, 4-Piperazin-1-yl-N-(pyridin-2-ylmethyl)pyridin-2-amine]",< 5.00
8,"NC1CN(c2ccnc(N[C@@H]3CCOC3)n2)C1 [Example 93, 4-(3-Aminoazetidin-1-yl)-N-[(3R)-tetrahydrofuran-3-yl]pyrimidin-2-amine]",6.15
9,"CN[C@H]1CCN(c2cnnc(NCCCO)c2)C1 [Example 403, 3-({5-[(3S)-3-(Methylamino)pyrrolidin-1-yl]pyridazin-3-yl}amino)propan-1-ol]",< 5.00
10,N[C@H]1CCN(c2ccnc(NCc3ccc(F)cc3)c2)C1 [Example 263],5.51
11,"NC1CCN(c2cnnc(NCC3CC4CCC3C4)c2)C1 (stereo in doubt) [Example 304, 5-[(3S)-3-Aminopyrrolidin-1-yl]-N-(bicyclo[2.2.1]hept-2-ylmethyl)pyridazin-3-amine]",6.51
12,"c1ccc(Nc2cc(N3CCNCC3)ccn2)cc1 [Example 38, N-Phenyl-4-piperazin-1-ylpyridin-2-amine]",6.56
13,"COc1ccc(CNc2cc(N3CCNCC3)cnn2)cc1 [Example 347, N-(4-Methoxybenzyl)-5-piperazin-1-ylpyridazin-3-amine]",< 5.00
14,"CC(C)Nc1nccc(N2CCN(C)CC2)n1 [Example 53, N-(1-Methylethyl)-4-(4-methylpiperazin-1-yl)pyrimidin-2-amine]",7.07
15,"COCCNc1cc(N2CCN(C)CC2)ccn1 [Example 239, N-(2-Methoxyethyl)-4-(4-methylpiperazin-1-yl)pyridin-2-amine]",6.15
16,"CN1CCN(c2cnnc(NC3CC4CCC3C4)c2)CC1 (stereo not drawn) [Example 406, N-Bicyclo[2.2.1]hept-2-yl-5-(4-methylpiperazin-1-yl)pyridazin-3-amine]",6.75

# Continued by rising pKi, values first:
row,pKi,Structure (SMILES)
1,7.06,"N[C@H]1CCN(c2ccnc(NC3CCCC3)n2)C1 [Example 160, 4-[(3S)-3-Aminopyrrolidin-1-yl]-N-cyclopentylpyrimidin-2-amine]"
2,7.19,"N[C@H]1CCN(c2ccnc(NCC3CC3)n2)C1 [Example 109, 4-[(3S)-3-Aminopyrrolidin-1-yl]-N-(cyclopropylmethyl)pyrimidin-1-amine]"
3,7.26,"CC(C)CNc1nccc(N2CC[C@H](N)C2)n1 [Example 198, 4-[(3S)-3-Aminopyrrolidin-1-yl]-N-(2-methylpropyl)pyrimidin-2-amine]"
4,7.37,"CNC1CN(c2ccnc(NC3C[C@H]4C[C@@H](C3C)C4(C)C)c2)C1 (stereo partly drawn) [Example 284, 4-[3-(Methylamino)azetidin-1-yl]-N-[(1S,5R)-2,6,6-trimethylbicyclo[3.1.1]hept-3-yl]pyridin-2-amine]"
5,7.44,"CSCCNc1nccc(N2CCN(C)CC2)n1 [Example 164, 4-(4-Methylpiperazin-1-yl)-N-[2-(methylsulfanyl)ethyl]pyrimidin-2-amine]"
6,7.47,"N[C@H]1CCN(c2ccnc(NC3CC4CCC3C4)n2)C1 (stereo partly drawn) [Example 146, 4-[(3S)-3-Aminopyrrolidin-1-yl]-N-bicyclo[2.2.1]hept-2-ylpyrimidin-2-amine]"
7,7.48,"CCCCNc1nccc(N2CC(N)C2)n1 [Example 84, [4-(3-Amino-azetidin-1-yl)-pyrimidin-2-yl]-butyl-amine]"
8,7.61,"CN[C@@H]1CCN(c2ccnc(NCC3CCCO3)n2)C1 (stereo partly drawn) [Example 81, [4-(3R)-(3-Methylamino-pyrrolidin-1-yl)-pyrimidin-2-yl]-(tetrahydro-furan-2-ylmethyl)-amine]"
9,7.72,"CN[C@@H]1CCN(c2ccnc(NCc3ccccc3)n2)C1 [Example 174, N-Benzyl-4-[(3R)-3-(methylamine)pyrrolidin-1-yl]pyrimidin-2-amine]"
10,7.76,"N[C@@H]1CCN(c2ccnc(NCC3CCCCC3)n2)C1 [Example 197, 4-[(3R)-3-Aminopyrrolidin-1-yl]-N-(cyclohexylmethyl)pyrimidin-2-amine]"
11,7.97,"CN[C@@H]1CCN(c2ccnc(NC3CC3)c2)C1 [Example 8, N-Cyclopropyl-4-[(3R)-3-(methylamino)pyrrolidin-1-yl]pyridin-2-amine dihydrochloride]"
12,8.01,"CN[C@@H]1CCN(c2ccnc(NCC(C)(C)CO)n2)C1 [Example 169, 2,2-Dimethyl-3-({4-[(3R)-3-(methylamino)pyrrolidin-1-yl]pyrimidin-2-yl}amino)propan-1-ol]"
13,8.05,"CN[C@@H]1CCN(c2ccnc(N[C@@H]3CCOC3)c2)C1 [Example 5, 4-[(3R)-3-(Methylamino)pyrrolidin-1-yl]-N-[(3R)-tetrahydrofuran-3-yl]pyridin-2-amine dihydrochloride]"
14,8.11,"c1cc(N2CCCNCC2)nc(NC2CC3CCC2C3)n1 (stereo not drawn) [Example 195, N-Bicyclo[2.2.1]hept-2-yl-4-(1,4-diazepan-1-yl)pyrimidin-2-amine]"
15,8.48,"CN[C@@H]1CCN(c2ccnc(NCC3CC3)n2)C1 [Example 77, Cyclopropylmethyl-[4-(3R)-(3-methylamino-pyrrolidin-1-yl)-pyrimidin-2-yl]-amine]"
16,8.57,"CC(C)CNc1nccc(N2CC[C@@H](N)C2)n1 [Example 23, 4-[(3R)-3-Aminopyrrolidin-1-yl]-N-(2-methylpropyl)pyrimidin-2-amine]"
17,9.07,"CN[C@@H]1CCN(c2ccnc(NC3C4CC5CC(C4)CC3C5)c2)C1 (stereo partly drawn) [Example 208, Adamantan-2-yl-[4-(3R)-(3-methylamino-pyrrolidin-1-yl)-pyridin-2-yl]-amine]"
